Data as given in publication PMC8775935, “Chebulinic Acid Suppresses Adipogenesis in 3T3-L1 Preadipocytes by Inhibiting PPP1CB Activity” (International Journal of Molecular Sciences, 2022).

Molecular target: protein phosphatase-1 catalytic subunit beta (PPP1CB) (Homo sapiens, UniProt P62140)
Experiment: DiFMUP fluorescence phosphatase assay, dose-response
Assay type: biochemical

Sequence of protein phosphatase-1 catalytic subunit beta (PPP1CB) (P62140 1-266): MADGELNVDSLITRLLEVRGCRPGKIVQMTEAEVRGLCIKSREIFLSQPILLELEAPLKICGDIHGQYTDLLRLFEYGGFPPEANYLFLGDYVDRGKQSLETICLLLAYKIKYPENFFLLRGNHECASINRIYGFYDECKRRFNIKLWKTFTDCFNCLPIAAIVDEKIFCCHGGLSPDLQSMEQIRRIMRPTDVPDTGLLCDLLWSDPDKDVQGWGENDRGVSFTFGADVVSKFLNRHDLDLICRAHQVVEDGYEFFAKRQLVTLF

## O=C(O)C[C@@H]1C(=O)O[C@H]2[C@H](OC(=O)c3cc(O)c(O)c(O)c3)[C@@H](OC(=O)c3cc(O)c(O)c4c3[C@H]1[C@H](O)C(=O)O4)[C@H](OC(=O)c1cc(O)c(O)c(O)c1)O[C@@H]2COC(=O)c1cc(O)c(O)c(O)c1 [compound 147, chebulinic acid]
  IC50: 300 nM
